According to patent US20240018125A1, “CYCLIC ISOTHIOUREA DERIVATIVES AS CXCR4 MODULATORS” (ERMIUM THERAPEUTICS, priority 2020, published 2024):
Where a name gives a salt, the structure may show the parent alone.

The molecules below were run on peripheral blood mononuclear cells (PBMCs) from healthy donors (assay: IFN production by R848-activated PBMCs, quantified with twINNE luciferase reporter cell line). Settings: Homo sapiens, PBMC; read-out: IC50 of anti-inflammatory activity (IFN production by activated PBMCs).
Format: cell-based, human
In short: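 Functional IFN was quantified by luciferase output from the twINNE ISRE-reporter line after 24 h on conditioned supernatants. Those supernatants came from human PBMCs (4.10^6/mL) pre-treated with compound and then stimulated for 24 h with 5 μg/mL resiquimod. IC50s were fitted by nonlinear variable-slope regression.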
With `Clc1ccc2c(c1)CN=C(SCCCCn1ccnc1)N2` [Example 176, 2-((4-(1H-imidazol-1-yl)butyl)thio)-6-chloro-1,4-dihydroquinazoline dihydrochloride] the IC50 was 10 to 32 µM. For `c1cncc(CSC2=NCc3ccccc3CN2)c1` [Example 193, 3-((pyridin-3-ylmethyl)thio)-2,5-dihydro-1H-benzo[e][1,3]diazepine], the IC50 was > 32 µM. `FC1(F)CC12CCN(CCSC1=NCc3ccccc3N1)C2` (stereo not drawn) [Example 132, 2-((2-(1,1-difluoro-5-azaspiro[2.4]heptan-5-yl)ethyl)thio)-3,4-dihydroquinazoline] gave an IC50 of 10 to 32 µM. `CN1CCCC1CSC1=NCC(Cc2ccccc2)N1` (stereo not drawn) [Example 53, 5-benzyl-2-(((1-methylpyrrolidin-2-yl)methyl)thio)-4,5-dihydro-1H-imidazole dihydrochloride] gave an IC50 of 10 to 32 µM. In the case of `c1ccc2c(c1)CN=C(SCCCN1CCCC1)NC2` [Example 194, 3-((3-(pyrrolidin-1-yl)propyl)thio)-2,5-dihydro-1H-benzo[e][1,3]diazepine dihydrochloride], the IC50 is reported as > 32 µM. Molecule `Clc1ccc2c(c1)CN1C(CSC3=NCCc4ccccc4N3)=CSC1=N2` [Example 76, 7-chloro-3-(((4,5-dihydro-1H-benzo[d][1,3]diazepin-2-yl)thio)methyl)-5H-thiazolo[2,3-b]quinazoline dihydrochloride] has an IC50 of 10 to 32 µM. In the case of `Clc1ccccc1CC1CN2C(CSC3=NCc4ccccc4N3)=CSC2=N1` (stereo not drawn) [Example 123, 6-(2-chlorobenzyl)-3-(((1,4-dihydroquinazolin-2-yl)thio)methyl)-5,6-dihydroimidazo[2,1-b]thiazole dihydrochloride], the IC50 is reported as ≤ 10 µM. With `F[C@H]1CCN(CCSC2=NCc3ccccc3N2)C1` [Example 156, (S)-2-((2-(3-fluoropyrrolidin-1-yl)ethyl)thio)-1,4-dihydroquinazoline dihydrochloride] the IC50 was 10 to 32 µM. In the case of `c1ccc2c(c1)CN=C(SCCN1CCCCCC1)N2` [Example 90, 2-((2-(azepan-1-yl)ethyl)thio)-1,4-dihydroquinazoline dihydrochloride], the IC50 is reported as ≤ 10 µM. `CC(CCCSC1=NCc2cc(Cl)ccc2N1)N1CCCC1` (stereo not drawn) [Example 162, 6-chloro-2-((4-(pyrrolidin-1-yl)pentyl)thio)-1,4-dihydroquinazoline dihydrochloride] was tested, and the IC50 was ≤ 10 µM. `Ic1cc2c(c(I)c1I)NC(SCCN1CCCC1)=NC2` [Example 134, 6,7,8-triiodo-2-((2-(pyrrolidin-1-yl)ethyl)thio)-1,4-dihydroquinazoline dihydrochloride] was tested, and the IC50 was ≤ 10 µM. In the case of `CC1(c2ccccc2)CN=C(SCCN2CCCC2)N1` (stereo not drawn) [Example 131, 5-methyl-5-phenyl-2-((2-(pyrrolidin-1-yl)ethyl)thio)-4,5-dihydro-1H-imidazole dihydrochloride], the IC50 is reported as 10 to 32 µM. `c1ccc2c(c1)CN(CCSC1=NCc3ccccc3N1)C2` [Example 71, 2-((2-(isoindolin-2-yl)ethyl)thio)-3,4-dihydroquinazoline dihydrochloride] showed an IC50 of 10 to 32 µM. `c1ccc2c(c1)CN=C(SCCCCN1CCCC1)N2` [Example 137, 2-((4-(pyrrolidin-1-yl)butyl)thio)-1,4-dihydroquinazoline dihydrochloride] was tested, and the IC50 was 10 to 32 µM. For `COc1ccc(C[C@@H]2CN3C(CSC4=NCc5ccccc5N4)=CSC3=N2)cc1` [Example 124, (R)-3-(((1,4-dihydroquinazolin-2-yl)thio)methyl)-6-(4-methoxybenzyl)-5,6-dihydroimidazo[2,1-b]thiazole dihydrochloride], the IC50 was ≤ 10 µM. `Fc1cccc(CC2CN3C(CSC4=NCc5ccccc5N4)=CSC3=N2)c1` (stereo not drawn) [Example 121, 3-(((1,4-dihydroquinazolin-2-yl)thio)methyl)-6-(3-fluorobenzyl)-5,6-dihydroimidazo[2,1-b]thiazole dihydrochloride] was tested, and the IC50 was ≤ 10 µM. With `c1ccc(C2CCN(CCSC3=NCc4ccccc4N3)C2)cc1` (stereo not drawn) [Example 140, 2-((2-(3-phenylpyrrolidin-1-yl)ethyl)thio)-1,4-dihydroquinazoline dihydrochloride] the IC50 was ≤ 10 µM. For `CN1CCN=C1SCC1=CSC2=Nc3ccc(Cl)cc3CN12` [Example 45, 7-chloro-3-(((1-methyl-4,5-dihydro-1H-imidazol-2-yl)thio)methyl)-5H-thiazolo[2,3-b]quinazoline dihydrochloride], the IC50 was ≤ 10 µM. In the case of `Fc1cccc2c1CN=C(SCCCCN1CCCC1)N2` [Example 149, 5-fluoro-2-((4-(pyrrolidin-1-yl)butyl)thio)-1,4-dihydroquinazoline dihydrochloride], the IC50 is reported as ≤ 10 µM. In the case of `CC1(C)CN2C(CSC3=NCc4cc(Cl)ccc4N3)=CSC2=N1` [Example 1, 3-(((6-chloro-1,4-dihydroquinazolin-2-yl)thio)methyl)-6,6-dimethyl-5,6-dihydroimidazo[2,1-b]thiazole dihydrochloride], the IC50 is reported as ≤ 10 µM. `C1CCC2NC(SCCN3CCCC3)=NCC2C1` (stereo not drawn) [Example 184, 2-((2-(pyrrolidin-1-yl)ethyl)thio)-1,4,4a,5,6,7,8,8a-octahydroquinazoline dihydrochloride] was tested, and the IC50 was > 32 µM. In the case of `CC1CCCN1CCSC1=NCc2ccccc2N1` (stereo not drawn) [Example 130, 2-((2-(2-methylpyrrolidin-1-yl)ethyl)thio)-1,4-dihydroquinazoline dihydrochloride], the IC50 is reported as ≤ 10 µM. For `c1ccc2c(c1)CN=C(SCCN1C[C@@H]3C[C@H]1CO3)N2` (stereo in doubt) [Example 139, (1S,4S)-5-(2-((1,4-dihydroquinazolin-2-yl)thio)ethyl)-2-oxa-5-azabicyclo[2.2.1]heptane dihydrochloride], the IC50 was 10 to 32 µM. In the case of `c1ccc(CC2CN=C(SCCCN3CCCC3)N2)cc1` (stereo not drawn) [Example 52, 5-benzyl-2-((3-(pyrrolidin-1-yl)propyl)thio)-4,5-dihydro-1H-imidazole dihydrochloride], the IC50 is reported as > 32 µM. With `Clc1nccc2sc(CSC3=NCC(Cc4ccccc4)N3)cc12` (stereo not drawn) [Example 61, 2-(((5-benzyl-4,5-dihydro-1H-imidazol-2-yl)thio)methyl)-4-chlorothieno[3,2-c]pyridine dihydrochloride] the IC50 was ≤ 10 µM. For `COc1ccc(CC2(C)CN=C(SCCCCN3CCCC3)N2)cc1` (stereo not drawn) [Example 169, 5-(4-methoxybenzyl)-5-methyl-2-((4-(pyrrolidin-1-yl)butyl)thio)-4,5-dihydro-1H-imidazole dihydrochloride], the IC50 was > 32 µM. With `CC1(c2ccccc2)CN=C(SCC2=CSC3=Nc4ccc(Cl)cc4CN23)N1` (stereo not drawn) [Example 72, 7-chloro-3-(((5-methyl-5-phenyl-4,5-dihydro-1H-imidazol-2-yl)thio)methyl)-5H-thiazolo[2,3-b]quinazoline dihydrochloride] the IC50 was ≤ 10 µM. `CC1(C)CN=C(SCCCCN2CCCC2)NC1` [Example 179, 5,5-dimethyl-2-((4-(pyrrolidin-1-yl)butyl)thio)-1,4,5,6-tetrahydropyrimidine dihydrochloride] was tested, and the IC50 was > 32 µM. `C1=C(CSC2=NCc3ccccc3N2)N2C(=Nc3ccccc3C2c2ccccc2)S1` (stereo not drawn) [Example 43, 3-(((3,4-dihydroquinazolin-2-yl)thio)methyl)-5-phenyl-5H-thiazolo[2,3-b]quinazoline dihydrochloride] was tested, and the IC50 was ≤ 10 µM. For `C1=C(CSC2=NCc3ccccc3N2)N2Cc3ccccc3N=C2S1` [Example 12, 3-(((1,4-dihydroquinazolin-2-yl)thio)methyl)-5H-thiazolo[2,3-b]quinazoline dihydrochloride], the IC50 was ≤ 10 µM.
